We go through 36 molecules from patent US20130261077A1 (priority 2012, published 2013).

One may read the Kd as the concentration at which binding is half-saturated. A high value points to lower affinity.

In the test the target is T1, FimH-CRD (Escherichia coli, UniProt P08191).
T1 construct: The first 177 amino acids of the FimH protein; thrombin tag (printed as 'fusion protein with thrombin') (cleaved yes); made in house; host or cells: bacteria (pET21b plasmid)
T1 sequence (P08191 22-177): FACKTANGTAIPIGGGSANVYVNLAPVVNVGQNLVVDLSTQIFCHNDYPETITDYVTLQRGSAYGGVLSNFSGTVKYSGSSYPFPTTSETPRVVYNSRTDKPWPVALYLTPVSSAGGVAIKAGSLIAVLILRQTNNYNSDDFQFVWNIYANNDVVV
Description: Competitive binding assay by fluorescence polarization, assay 2 (compounds prepared by robotics, plates frozen and thawed). The gist of the method: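 Fluorescence-polarization competition of 5 nM Alexa 647 mannoside probe with 60 nM FimH-CRD (first 177 residues, tag removed) in Tris-Cl pH 7.0, NaCl, EDTA, β-ME, BSA, 2.5% DMSO, 5 h at RT in the dark. Twelve-point 3-fold titrations (0.4 nM–75 μM) in duplicate; Kd interpolated from displacement curves.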
(In general: Polarisation of emitted light reports the rotation of a fluorescent probe.)
For `OC[C@H]1O[C@H](c2cccc(C/C=C/c3ccccc3)c2)[C@@H](O)[C@@H](O)[C@@H]1O` [Compound 96, (2R,3S,4R,5S,6R)-2-[3-[(E)-Cinnamyl]phenyl]-6-(hydroxymethyl)tetrahydropyran-3,4,5-triol], the Kd stood at 29 ± 2.3 nM.
With `OC[C@H]1OC(c2ccc(OCc3cc(Cl)cc(Cl)c3)cc2)[C@@H](O)[C@@H](O)[C@@H]1O` (stereo partly drawn) [Compound 250] the figure was 40.6 ± 23.4 nM; with `CNC(=O)c1cccc(Oc2ccc(OC(F)(F)F)c([C@H]3O[C@H](CO)[C@@H](O)[C@H](O)[C@@H]3O)c2)c1` [Compound 201, N-methyl-3-[4-(trifluoromethoxy)-3-[(2R,3S,4R,5S,6R)-3,4,5-trihydroxy-6-(hydroxymethyl)tetrahydropyran-2-yl]phenoxy]benzamide], 103 ± 1.8 nM.
Molecule `OC[C@H]1OC(c2ccc(OCc3cccc4nonc34)cc2)[C@@H](O)[C@@H](O)[C@@H]1O` (stereo partly drawn) [Compound 251] showed a Kd of 29.9 ± 13.9 nM.
Next, `COC(=O)c1cccc(CCc2cccc([C@H]3O[C@H](CO)[C@@H](O)[C@H](O)[C@@H]3O)c2)c1` [Compound 101, Methyl 3-[2-[3-[(2R,3S,4R,5S,6R)-3,4,5-trihydroxy-6-(hydroxymethyl)tetrahydropyran-2-yl]phenyl]ethyl]benzoate]: 12.9 ± 9.7 nM.
As for `Cc1nnc(-c2ccc(-c3ccc([C@H]4O[C@H](CO)[C@@H](O)[C@H](O)[C@@H]4O)cc3)cc2)o1` [Compound 129, (2R,3S,4R,5S,6R)-2-(hydroxymethyl)-6-[4-[4-(5-methyl-1,3,4-oxadiazol-2-yl)phenyl]phenyl]tetrahydropyran-3,4,5-triol], the Kd turned out to be 22.9 ± 5.4 nM.
Next, `OC[C@H]1O[C@H](c2cccc(-c3ccc(-c4cccnc4)cc3)c2)[C@@H](O)[C@@H](O)[C@@H]1O` [Compound 174]: 13.6 ± 3.4 nM.
With `Cc1ccc2[nH]c(-c3cccc([C@H]4O[C@H](CO)[C@@H](O)[C@H](O)[C@@H]4O)c3)nc2c1` [Compound 164] the figure was 50.2 ± 14.1 nM; with `CNC(=O)c1cccc(-c2ccc3cc([C@H]4O[C@H](CO)[C@@H](O)[C@H](O)[C@@H]4O)ccc3c2)c1` [Compound 154, N-methyl-3-[6-[(2R,3S,4R,5S,6R)-3,4,5-trihydroxy-6-(hydroxymethyl)tetrahydropyran-2-yl]-2-naphthyl]benzamide], 18.4 ± 6.9 nM; with `OC[C@H]1OC(c2ccc(OCCCCF)cc2)[C@@H](O)[C@@H](O)[C@@H]1O` (stereo partly drawn) [Compound 234], 11.4 ± 4.5 nM.
With `COCc1cc(-c2cccc([C@H]3O[C@H](CO)[C@@H](O)[C@H](O)[C@@H]3O)c2)ccc1-c1nnc(C)o1` [Compound 142, (2R,3S,4R,5S,6R)-2-(hydroxymethyl)-6-[3-[3-(methoxymethyl)-4-(5-methyl-1,3,4-oxadiazol-2-yl)phenyl]phenyl]tetrahydropyran-3,4,5-triol] the figure was 14.8 ± 5.9 nM; with `OC[C@H]1O[C@H](c2cccc(-c3nc4cc(Cl)ccc4[nH]3)c2)[C@@H](O)[C@@H](O)[C@@H]1O` [Compound 170], 32.4 ± 14.4 nM; with `CNC(=O)c1ccc(COc2cccc(C3O[C@H](CO)[C@@H](O)[C@H](O)[C@@H]3O)c2)cc1` (stereo partly drawn) [Compound 225], 34.5 ± 12.3 nM.
`COc1cc(-c2nnc(C)o2)ccc1-c1cccc([C@H]2O[C@H](CO)[C@@H](O)[C@H](O)[C@@H]2O)c1C` [Compound 107, (2R,3S,4R,5S,6R)-2-(hydroxymethyl)-6-[3-[2-methoxy-4-(5-methyl-1,3,4-oxadiazol-2-yl)phenyl]-2-methyl-phenyl]tetrahydropyran-3,4,5-triol] returned a Kd of 9.8 ± 0.6 nM.
With `Cc1nnc(-c2ccc(-c3cccc([C@H]4O[C@H](CO)[C@@H](O)[C@H](O)[C@@H]4O)c3)cc2F)o1` [Compound 150, (2R,3S,4R,5S,6R)-2-[3-[3-Fluoro-4-(5-methyl-1,3,4-oxadiazol-2-yl)phenyl]phenyl]-6-(hydroxymethyl)tetrahydropyran-3,4,5-triol] the figure was 25.9 ± 5.1 nM; with `CN(C)Cc1nnc(-c2ccc(-c3cccc([C@H]4O[C@H](CO)[C@@H](O)[C@H](O)[C@@H]4O)c3)cc2)o1` [Compound 113, (2R,3S,4R,5S,6R)-2-[3-[4-[5-[(Dimethylamino)methyl]-1,3,4-oxadiazol-2-yl]phenyl]phenyl]-6-(hydroxymethyl)tetrahydropyran-3,4,5-triol], 20.7 ± 4.7 nM.
With `OC[C@H]1OC(c2cccc(OCCCc3ccccc3)c2)[C@@H](O)[C@@H](O)[C@@H]1O` (stereo partly drawn) [Compound 217] the figure was 12.1 ± 7.6 nM; with `COc1ccc(CCOc2ccc(C3O[C@H](CO)[C@@H](O)[C@H](O)[C@@H]3O)cc2)cc1` (stereo partly drawn) [Compound 239], 7.7 ± 0.05 nM.
Next, `COc1cc(-c2cccc([C@H]3O[C@H](CO)[C@@H](O)[C@H](O)[C@@H]3O)c2)ccc1-c1nnc(C)o1` [Compound 127, (2R,3S,4R,5S,6R)-2-(hydroxymethyl)-6-[3-[3-methoxy-4-(5-methyl-1,3,4-oxadiazol-2-yl)phenyl]phenyl]tetrahydropyran-3,4,5-triol]: 17.4 ± 4.8 nM.
`COC(=O)CCCOc1ccc(C2O[C@H](CO)[C@@H](O)[C@H](O)[C@@H]2O)cc1` (stereo partly drawn) [Compound 243] showed a Kd of 5.8 nM.
Next, `N#Cc1ccc(Oc2cccc([C@H]3O[C@H](CO)[C@@H](O)[C@H](O)[C@@H]3O)c2)cc1` [Compound 185, 4-[3-[(2R,3S,4R,5S,6R)-3,4,5-trihydroxy-6-(hydroxymethyl)tetrahydropyran-2-yl]phenoxy]benzonitrile]: 11.7 ± 7.5 nM.
With `OC[C@H]1O[C@H](c2cccc(-c3ccc(-c4cnco4)cc3)c2)[C@@H](O)[C@@H](O)[C@@H]1O` [Compound 119, (2R,3S,4R,5S,6R)-2-(hydroxymethyl)-6-[3-(4-oxazol-5-ylphenyl)phenyl]tetrahydropyran-3,4,5-triol] the figure was 19.5 ± 8.8 nM; with `OC[C@H]1OC(c2ccc(OCC3CCOCC3)cc2)[C@@H](O)[C@@H](O)[C@@H]1O` (stereo partly drawn) [Compound 236], 11.5 ± 4.6 nM; with `CCCCn1cnc2ccc(-c3cccc([C@H]4O[C@H](CO)[C@@H](O)[C@H](O)[C@@H]4O)c3)cc21` [Compound 149, (2R,3S,4R,5S,6R)-2-[3-(3-Butylbenzimidazol-5-yl)phenyl]-6-(hydroxymethyl)tetrahydropyran-3,4,5-triol], 19.8 ± 11.2 nM.
With `Cc1cc(O)cc([C@H]2O[C@H](CO)[C@@H](O)[C@H](O)[C@@H]2O)c1` [Compound 194, (2R,3S,4R,5S,6R)-2-(hydroxymethyl)-6-(3-hydroxy-5-methyl-phenyl)tetrahydropyran-3,4,5-triol] the figure was 31 ± 29.4 nM; with `CNC(=O)c1cccc(C#Cc2cccc([C@H]3O[C@H](CO)[C@@H](O)[C@H](O)[C@@H]3O)c2)c1` [Compound 93, N-Methyl-3-[2-[3-[(2R,3S,4R,5S,6R)-3,4,5-trihydroxy-6-(hydroxymethyl)tetrahydropyran-2-yl]phenyl]ethynyl]benzamide], 7.5 ± 2.5 nM; with `COC(=O)c1ccc2nc(-c3cccc([C@H]4O[C@H](CO)[C@@H](O)[C@H](O)[C@@H]4O)c3)ccc2c1` [Compound 144, Methyl 2-[3-[(2R,3S,4R,5S,6R)-3,4,5-trihydroxy-6-(hydroxymethyl)tetrahydropyran-2-yl]phenyl]quinoline-6-carboxylate], 18.3 ± 7.5 nM.
In turn, `OC[C@H]1OC(c2cccc(OCC3CCCCC3)c2)[C@@H](O)[C@@H](O)[C@@H]1O` (stereo partly drawn) [Compound 215] gave an equilibrium dissociation constant (Kd) of 13.1 ± 3.9 nM.
Turning to `OC[C@H]1O[C@H](c2cccc(-c3nc4c(Cl)cc(Cl)cc4[nH]3)c2)[C@@H](O)[C@@H](O)[C@@H]1O` [Compound 162], the Kd is 39.5 ± 11 nM.
Next, `Cc1nc(-c2ccc(-c3cccc([C@H]4O[C@H](CO)[C@@H](O)[C@H](O)[C@@H]4O)c3)cc2)no1` [Compound 175]: 10.2 ± 0.04 nM.
Next, `COC(=O)c1ccc(CCc2cccc([C@H]3O[C@H](CO)[C@@H](O)[C@H](O)[C@@H]3O)c2)cc1` [Compound 103, Methyl 4-[2-[3-[(2R,3S,4R,5S,6R)-3,4,5-trihydroxy-6-(hydroxymethyl)tetrahydropyran-2-yl]phenyl]ethyl]benzoate]: 9.7 ± 4.5 nM; `CNC(=O)COc1cccc(C2O[C@H](CO)[C@@H](O)[C@H](O)[C@@H]2O)c1` (stereo partly drawn) [Compound 212]: 18.9 ± 0.8 nM.
Next, `Cn1nccc1-c1ccc(-c2cccc([C@H]3O[C@H](CO)[C@@H](O)[C@H](O)[C@@H]3O)c2)cc1` [Compound 124, (2R,3S,4R,5S,6R)-2-(hydroxymethyl)-6-[3-[4-(2-methylpyrazol-3-yl)phenyl]phenyl]tetrahydropyran-3,4,5-triol]: 16.2 ± 2 nM; `CNC(=O)c1cc(C#Cc2cccc([C@H]3O[C@H](CO)[C@@H](O)[C@H](O)[C@@H]3O)c2C)cc(C(=O)NC)c1` [Compound 90, N1,N3-Dimethyl-5-[2-[2-methyl-3-[(2R,3S,4R,5S,6R)-3,4,5-trihydroxy-6-(hydroxymethyl)tetrahydropyran-2-yl]phenyl]ethynyl]benzene-1,3-dicarboxamide]: 20.3 ± 2.2 nM; `CNC(=O)c1cccc(COc2cccc([C@H]3O[C@H](CO)[C@@H](O)[C@H](O)[C@@H]3O)c2)c1` [Compound 227, N-methyl-3-[[3-[(2R,3S,4R,5S,6R)-3,4,5-trihydroxy-6-(hydroxymethyl)tetrahydropyran-2-yl]phenoxy]methyl]benzamide]: 37.1 ± 15.4 nM.
The molecule `CC(C)c1nnc(-c2ccc(-c3cccc([C@H]4O[C@H](CO)[C@@H](O)[C@H](O)[C@@H]4O)c3)cc2)o1` [Compound 118, (2R,3S,4R,5S,6R)-2-(hydroxymethyl)-6-[3-[4-(5-isopropyl-1,3,4-oxadiazol-2-yl)phenyl]phenyl]tetrahydropyran-3,4,5-triol] came in with a Kd of 13.1 ± 0.2 nM.
